Measurements: patent US10987354B2, “Inhibitors of influenza virus replication and uses thereof” (SUNSHINE LAKE PHARMA CO., LTD., priority 2016, dated 2021)
Read-outs that look alike come from different tables or passages of the source.

Tests used:
in vivo = settings: SD, rat
Experimental: The compounds disclosed herein were administered in form of a saline solution containing 5% DMSO, 5% Kolliphor HS 15 and 90% Saline. For intravenous administration (iv), the animals were administered with a dose of 1 mg/kg, and blood samples (0.3 mL) were collected at the time points of 0.083, 0.25, 0.5, 1.0, 2.0, 5.0, 7.0 and 24 h after drug administration, then each blood sample was processed to separate plasma by centrifugation at 3000 rpm or 4000 rpm for 10 minutes. For oral administration (po), the animals were administered with a dose of 5 mg/kg, and blood samples (0.3 mL) were collected at the time points of 0.25, 0.5, 1.0, 2.0, 5.0, 7.0 and 24 h after drug administration, then each blood sample was processed to separate plasma by centrifugation at 3000 rpm or 4000 rpm for 10 minutes. Plasma samples were collected and stored at −20° C. or −70° C. until LC/MS/MS analysis.

virus H1N1 A/Weiss/43 = assay: microbe, parasite or virus in culture; format: cell-based; settings: Influenza A virus, H1N1, 120 h; MDCK cells, CPE, 5 days, CCK-8; read-out: EC50, inhibitory activity against influenza virus (A/Weiss/43(H1N1))
[1] = test system: Influenza B virus-B/Lee/40; assay: microbe, parasite or virus in culture; format: cell-based; settings: 72 h, read-out: EC50, inhibitory activity against influenza virus (Influenza B virus-B/Lee/40)
[2] = MDCK cells, CPE, 3 days, CellTiter

Row | Compound | AUC(0-inf) (in vivo; iv, 1 mg/kg) [ng·h/mL] | AUC(0-t) (in vivo; iv, 1 mg/kg) [ng·h/mL] | clearance (in vivo; iv, 1 mg/kg) [mL/min/kg] | AUC(0-inf) (in vivo; po, 5 mg/kg) [ng·h/mL] | AUC(0-t) (in vivo; po, 5 mg/kg) [ng·h/mL] | EC50 (virus H1N1 A/Weiss/43) [nM] | EC50 [1, 2] [nM] | EC50 ([1]; MDCK) [nM]
1 | O=C(O)[C@H]1C2CCC(CC2)[C@@H]1Nc1nc(-c2c[nH]c3ncc(Cl)nc23)ncc1F [Compound A, reference compound] | 894 | 894 | 312 | 2910 | 2880 | 33.2 |  | 
2 | CC(C)(C)[C@@H](CC(=O)O)Nc1nc(-c2c[nH]c3ncc(Cl)nc23)nc(-c2ccco2)c1F [Example 8, (R)-3-((2-(2-chloro-5H-pyrrolo[2,3-b]pyrazin-7-yl)-5-fluoro-6-(furan-2-yl)pyrimidin-4-yl)amino)-4,4-dimethylpentanoic Acid] | 1550 | 1540 | 187 | 5440 | 5420 | 0.394 |  | 
3 | O=C(O)[C@H]1C2CCC(CC2)[C@@H]1Nc1nc(-c2c[nH]c3ncc(Cl)nc23)nc(-c2cccs2)c1F [Example 13, (2S,3S)-3-((2-(2-chloro-5H-pyrrolo[2,3-b]pyrazin-7-yl)-5-fluoro-6-(thiophen-2-yl)pyrimidin-4-yl)amino)bicyclo[2.2.2]octane-2-carboxylic Acid] | 10100 | 9900 | 27.8 | 29000 | 27400 | 0.017 |  | 
4 | CC(C)n1ccc2c(N[C@H]3C4CCC(CC4)[C@@H]3C(=O)O)nc(-c3c[nH]c4ncc(Cl)nc34)nc21 [Example 20, (2S,3S)-3-((2-(2-chloro-5H-pyrrolo[2,3-b]pyrazin-7-yl)-7-isopropyl-7H-pyrrolo[2,3-d]pyrimidin-4-yl)amino)bicyclo[2.2.2]octane-2-carboxylic Acid] |  |  |  |  |  | 0.192 | 1620 | 
5 | O=C(O)[C@H]1C2CCC(CC2)[C@@H]1Nc1nc(-c2c[nH]c3ncc(Cl)nc23)nc(-c2ccc(C3CC3)s2)c1F [Example 27, (2S,3S)-3-((2-(2-chloro-5H-pyrrolo[2,3-b]pyrazin-7-yl)-6-(5-cyclopropylthiophen-2-yl)-5-fluoropyrimidin-4-yl)amino)bicyclo[2.2.2]octane-2-carboxylic Acid] | 1960 | 1960 | 144 | 7250 | 7170 | 0.024 |  | 
6 | O=C(O)[C@H]1C2CCC(CC2)[C@@H]1Nc1nc(-c2c[nH]c3ncc(Cl)nc23)nc(-c2ccc(Cl)s2)c1F [Example 29, (2S,3S)-3-((2-(2-chloro-5H-pyrrolo[2,3-b]pyrazin-7-yl)-6-(5-chlorothiophen-2-yl)-5-fluoropyrimidin-4-yl)amino)bicyclo[2.2.2]octane-2-carboxylic Acid] | 4980 | 4830 | 56.3 | 23800 | 23700 | 0.013 |  | 
7 | Cc1ccc(-c2nc(-c3c[nH]c4ncc(Cl)nc34)nc(N[C@H]3C4CCC(CC4)[C@@H]3C(=O)O)c2F)s1 [Example 33, (2S,3S)-3-((2-(2-chloro-5H-pyrrolo[2,3-b]pyrazin-7-yl)-5-fluoro-6-(5-methylthiophen-2-yl)pyrimidin-4-yl)amino)bicyclo[2.2.2]octane-2-carboxylic Acid] |  |  |  |  |  | 0.01 |  | 
8 | O=C(O)[C@H]1C2CCC(CC2)[C@@H]1Nc1cc(N2CCN(c3ccccc3)CC2)nc(-c2c[nH]c3ncc(Cl)nc23)n1 [Example 39, (2S,3S)-3-((2-(2-chloro-5H-pyrrolo[2,3-b]pyrazin-7-yl)-6-(4-phenylpiperazin-1-yl)pyrimidin-4-yl)amino)bicyclo[2.2.2]octane-2-carboxylic Acid] |  |  |  |  |  | 1.22 |  | 
9 | O=C(O)[C@H]1C2CCC(CC2)[C@@H]1Nc1nc(-c2c[nH]c3ncc(Cl)nc23)nc(-c2nccs2)c1F [Example 49, (2S,3S)-3-((2-(2-chloro-5H-pyrrolo[2,3-b]pyrazin-7-yl)-5-fluoro-6-(thiazol-2-yl)pyrimidin-4-yl)amino)bicyclo[2.2.2]octane-2-carboxylic Acid] | 3950 | 3940 | 71.5 | 3550 | 3500 | 0.521 |  | 
10 | O=C(O)[C@H]1C2CCC(CC2)[C@@H]1Nc1cc(-n2cccc2)nc(-c2c[nH]c3ncc(Cl)nc23)n1 [Example 55, (2S,3S)-3-((2-(2-chloro-5H-pyrrolo[2,3-b]pyrazin-7-yl)-6-(1H-pyrrol-1-yl)pyrimidin-4-yl)amino)bicyclo[2.2.2]octane-2-carboxylic Acid] |  |  |  |  |  | 0.68 |  | 
11 | O=C(O)[C@H]1C2CCC(CC2)[C@@H]1Nc1nc(-c2c[nH]c3ncc(Cl)nc23)nc(-n2cccc2)c1F [Example 60, (2S,3S)-3-((2-(2-chloro-5H-pyrrolo[2,3-b]pyrazin-7-yl)-5-fluoro-6-(1H-pyrrol-1-yl)pyrimidin-4-yl)amino)bicyclo[2.2.2]octane-2-carboxylic Acid] |  |  |  |  |  |  | 26400 | 
12 | O=C(O)[C@H]1C2CCC(CC2)[C@@H]1Nc1nc(-c2c[nH]c3ncc(Cl)nc23)nc(-c2ccc(F)s2)c1F [Example 62, (2S,3S)-3-((2-(2-chloro-5H-pyrrolo[2,3-b]pyrazin-7-yl)-5-fluoro-6-(5-fluorothiophen-2-yl)pyrimidin-4-yl)amino)bicyclo[2.2.2]octane-2-carboxylic Acid] | 5510 | 5390 | 50.7 | 25000 | 24400 | 0.011 |  | 
13 | N#Cc1ccc(-c2nc(-c3c[nH]c4ncc(Cl)nc34)nc(N[C@H]3C4CCC(CC4)[C@@H]3C(=O)O)c2F)s1 [Example 63, (2S,3S)-3-((2-(2-chloro-5H-pyrrolo[2,3-b]pyrazin-7-yl)-6-(5-cyanothiophen-2-yl)-5-fluoropyrimidin-4-yl)amino)bicyclo[2.2.2]octane-2-carboxylic acid] |  |  |  |  |  | 0.079 |  | 
14 | O=C(O)[C@H]1C2CCC(CC2)[C@@H]1Nc1nc(-c2c[nH]c3nccnc23)nc(-c2cccs2)c1F [Example 64, (2S,3S)-3-((5-fluoro-2-(5H-pyrrolo[2,3-b]pyrazin-7-yl)-6-(thiophen-2-yl)pyrimidin-4-yl)amino)bicyclo[2.2.2]octane-2-carboxylic Acid] |  |  |  |  |  | 0.887 |  | 
15 | CC(C)Cn1ccc2c(N[C@H]3C4CCC(CC4)[C@@H]3C(=O)O)nc(-c3c[nH]c4ncc(Cl)nc34)nc21 [Example 66, (2S,3S)-3-((2-(2-chloro-5H-pyrrolo[2,3-b]pyrazin-7-yl)-7-isobutyl-7H-pyrrolo[2,3-d]pyrimidin-4-yl)amino)bicyclo[2.2.2]octane-2-carboxylic Acid] | 3480 | 3470 | 82.5 | 12600 | 12500 | 0.274 |  | 
16 | O=C(O)C1C2CCC(CC2)C1Nc1nc(-c2c[nH]c3ncc(F)cc23)ncc1F (stereo not drawn) [JNJ-872, reference compound] |  |  |  |  |  |  |  | > 50000
